Test results from patent US7482379B2, “Propenoyl hydrazides” (priority 2004, dated 2009).

Molecular target: T1, Caspase-7 (Homo sapiens, UniProt P55210)
T1 sequence (P55210 24-198 limits assumed): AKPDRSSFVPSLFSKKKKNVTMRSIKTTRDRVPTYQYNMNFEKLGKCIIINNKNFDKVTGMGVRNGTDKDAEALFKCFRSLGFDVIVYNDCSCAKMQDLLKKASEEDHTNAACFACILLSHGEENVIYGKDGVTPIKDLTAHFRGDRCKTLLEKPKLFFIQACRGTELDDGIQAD
T1 sequence (P55210 207-303 limits assumed): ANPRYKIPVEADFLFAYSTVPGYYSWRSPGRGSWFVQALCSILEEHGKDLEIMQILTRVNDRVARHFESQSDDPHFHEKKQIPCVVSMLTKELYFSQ
Test: Caspase-7 progress curve inhibition assay
Settings: second-order rate constant; Ac-DEVD-AMC substrate; Pipes buffer pH 7.2

For `C/C=C/C=C/C(=O)N(CC(=O)O)NC(=O)[C@@H](NC(=O)OCc1ccccc1)C(C)C` (stereo in doubt) [Cbz-Val-AAsp-CH═CH—CH═CH—CH3, N^2—(N-Benzyloxyearbonylvalyl)-N^1-carboxymethyl-N^1-trans-(hexa-2,4-dienoyl)hydrazine], the “k2 Caspase-7” value was 56 M⁻¹ s⁻¹.

Molecular target: S. mansoni legumain (Schistosoma mansoni, UniProt P09841, N192C)
Test: S. mansoni legumain (SmAE) inhibition assay
Type: biochemical
Settings: not given
Description: Studies with the propenoyl hydrazides using the schistosome legumain […], (Schistosoma mansoni asparaginyl endopeptidase) were also performed. […] The actual active site enzyme concentration is unknown. The lyophilized enzyme ([…]) was reconstituted in 1.5 mL 0.5 M sodium acetate, pH 4.5 containing 4 mM DTT, and left to stand at 37° C. for 3-4 hours to allow for auto-activation of the zymogen. In a black 96-well microtiter plate, 50 μL of activated enzyme was added to an equal volume of 0.1 M citrate-phosphate buffer pH 6.8 containing 4 mM DTT. Inhibitor stock solutions (20 mM) were prepared in DMSO. Serial dilutions (using water) of inhibitor were added (as 1 μL aliquots) to yield concentrations of between 2 and 0.00002 μM inhibitor. […] After incubating various inhibitor concentrations with enzyme, 100 μL of the same buffer containing 20 μM substrate (Cbz-Ala-Ala-Asn-AMC) was added to the wells and the reaction monitored at room temperature with linear kinetics up to 20 minutes. Inhibitors are tested in duplicate. A plot of the RFU/min versus the inhibitor concentration [μM] permitted calculation of an IC50 value and estimation of the kobs/[I].

Sequence of S. mansoni legumain (P09841 32-291 N192C): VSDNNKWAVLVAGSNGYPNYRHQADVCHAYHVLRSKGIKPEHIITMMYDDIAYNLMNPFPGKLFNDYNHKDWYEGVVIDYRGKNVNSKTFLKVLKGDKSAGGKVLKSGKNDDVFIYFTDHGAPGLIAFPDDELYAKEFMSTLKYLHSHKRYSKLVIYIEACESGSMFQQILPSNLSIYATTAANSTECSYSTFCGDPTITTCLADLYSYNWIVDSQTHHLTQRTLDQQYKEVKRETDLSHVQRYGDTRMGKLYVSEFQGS

`C[C@H](NC(=O)OCc1ccccc1)C(=O)N[C@@H](C)C(=O)NN(CC(N)=O)C(=O)/C=C/C(=O)N(Cc1ccccc1)Cc1ccc2ccccc2c1` and `COc1ccc(CN(Cc2ccccc2)C(=O)/C=C/C(=O)N(CC(N)=O)NC(=O)[C@H](C)NC(=O)[C@H](C)NC(=O)OCc2ccccc2)cc1` [Cbz-Ala-Ala-AAsn-CH═CH—CON(Bzl-4-OMe)Bzl, N^2—(N-Benzyloxycarbonylalanylalanyl)-N^1-trans-(3-benzyl-(4-methoxybenzyl)carbamoyl)propenoyl-N^1-carbamoylmethylhydrazine] are within 1.5-fold of each other in IC50: 70 nM for the first, 90 nM for the second.

First: CCOC(=O)C=CC(=O)N(CC(N)=O)NC(=O)C(C)NC(=O)C(C)NC(=O)CCCCC1SCC2NC(=O)NC21 (stereo not drawn) [Biotinyl-Ala-Ala-AAsn-CH═CH—COOEt]
Second: CCCCN(CCCC)C(=O)/C=C/C(=O)N(CC(N)=O)NC(=O)[C@H](C)NC(=O)[C@H](C)NC(=O)OCc1ccccc1 [Cbz-Ala-Ala-AAsn-CH═CH—CON(nBu)2, N^2—(N-Benzyloxycarbonylalanylalanyl)-N^1-carbamoylmethyl-N^1-trans-(3-dibutylcarbamoylpropenoyl)hydrazine]
The IC50 of the first is 55-fold lower: 10 nM for the first, 550 nM for the second. The first is the more potent here.

`C[C@H](NC(=O)OCc1ccccc1)C(=O)N[C@@H](C)C(=O)NN(CC(N)=O)C(=O)/C=C/c1ccco1` [Cbz-Ala-Ala-AAsn-CH═CH-2-furyl, N^2—(N-Benzyloxycarbonylalanylalanyl)-N^1-carbamoylmethyl-N^1-trans-(3-(2-furyl)propenoyl)hydrazine] and `C[C@H](NC(=O)OCc1ccccc1)C(=O)N[C@@H](C)C(=O)NN(CC(N)=O)C(=O)/C=C/c1cccnc1` [Cbz-Ala-Ala-AAsn-CH═CH-3-Py, N^2—(N-Benzyloxycarbonylalanylalanyl)-N^1-carbamoylmethyl-N^1-trans-(3-(3-pyridyl)propenoyl)hydrazine] cannot be ordered by IC50: greater than 2000 nM for the first, greater than 2000 nM for the second.

First: C[C@H](NC(=O)OCc1ccccc1)C(=O)N[C@@H](C)C(=O)NN(CC(N)=O)C(=O)/C=C/C(=O)N1CC=C(c2ccccc2)CC1 [Cbz-Ala-Ala-AAsn-CH═CH—CO-(4-Ph-Py), N^2—(N-Benzyloxycarbonylalanylalanyl)-N^1-carbamoylmethyl-N^1-trans-(3-(4-phenyl-5,6-dihydro-2H-pyridin-1-yloxo)propenoyl)hydrazine]
Second: C[C@H](NC(=O)OCc1ccccc1)C(=O)N[C@@H](C)C(=O)NN(CC(N)=O)C(=O)/C=C/C(=O)N1Cc2ccccc2C1 [Cbz-Ala-Ala-AAsn-CH═CH—CO-isoindoline, N^2—(N-Benzyloxycarbonylalanylalanyl)-N^1-carbamoylmethyl-N^1-trans-(3-(1,3-dihydroisoindol-2-yloxo)propenoyl)hydrazine]
The IC50 of the first is 2.5-fold higher: 750 nM for the first, 300 nM for the second. The second is the more potent here.

Compared with `C[C@H](NC(=O)OCc1ccccc1)C(=O)N[C@@H](C)C(=O)NN(CC(N)=O)C(=O)/C=C/C(=O)N1CCCCC1` [Cbz-Ala-Ala-AAsn-CH═CH—CO-Pip, N^2—(N-Benzyloxycarbonylalanylalanyl)-N^1-carbamoylmethyl-N^1-trans-(3-(1-piperidyloxo)propenoyl)hydrazine], `C[C@H](NC(=O)OCc1ccccc1)C(=O)N[C@@H](C)C(=O)NN(CC(N)=O)C(=O)/C=C/C(=O)N1CCCc2ccccc21` [N^2—(N-Benzyloxycarbonylalanylalanyl)-N^1-carbamoylmethyl-N^1-trans-(3-(3,4-dihydro-2H-quinolin-1-yloxo)propenoyl)hydrazine] is 14-fold lower in IC50: 1000 nM for the first, 70 nM for the second. The second is the more potent here.

`C[C@H](NC(=O)OCc1ccccc1)C(=O)N[C@@H](C)C(=O)NN(CC(N)=O)C(=O)/C=C/C(=O)N(Cc1ccccc1)c1ccccc1` [Cbz-Ala-Ala-AAsn-CH═CH—CON(Bzl)Ph, N^2—(N-Benzyloxycarbonylalanylalanyl)-N^1-carbamoylmethyl-N^1-trans-(3-phenylbenzylcarbamoylpropenoyl)hydrazine] and `C[C@H](NC(=O)OCc1ccccc1)C(=O)N[C@@H](C)C(=O)NN(CC(N)=O)C(=O)/C=C/C(=O)N(Cc1ccccc1)Cc1ccc(F)cc1` [Cbz-Ala-Ala-AAsn-CH═CH—CON(Bzl-4-F)Bzl, N^2—(N-Benzyloxycarbonylalanylalanyl)-N^1-trans-(3-benzyl(4-fluorobenzyl)carbamoylpropenoyl)-N^1-carbamoylmethylhydrazine] are within 1.5-fold of each other in IC50: 70 nM for the first, 60 nM for the second.

First: C[C@H](NC(=O)OCc1ccccc1)C(=O)N[C@@H](C)C(=O)NN(CC(N)=O)C(=O)/C=C/C(=O)N(Cc1ccco1)Cc1ccco1 [Cbz-Ala-Ala-AAsn-CH═CH—CON(CH2-2-furyl)2, N^2—(N-Benzyloxycarbonylalanylalanyl)-N^1-carbamoylmethyl-N^1-trans-(3-bis-(2-furylmethyl)carbamoylpropenoyl)hydrazine]
Second: C[C@H](NC(=O)OCc1ccccc1)C(=O)N[C@@H](C)C(=O)NN(CC(N)=O)C(=O)/C=C/C(=O)N(C)c1ccccc1 [Cbz-Ala-Ala-AAsn-CH═CH—CON(CH3)Ph, N^2—(N-Benzyloxycarbonylalanylalanyl)-N^1-carbamoylmethyl-N^1-trans-(3-(methylphenylcarbamoyl)propenoyl)hydrazine]
The IC50 of the first is 15-fold higher: 900 nM for the first, 60 nM for the second. The second is the more potent here.

First: C[C@H](NC(=O)OCc1ccccc1)C(=O)N[C@@H](C)C(=O)NN(CC(N)=O)C(=O)/C=C/C(=O)N(C)CCc1ccccc1 [Cbz-Ala-Ala-AAsn-CH═CH—CON(CH3)CH2CH2Ph, N^2—(N-Benzyloxycarbonylalanylalanyl)-N^1-carbamoylmethyl-N^1-trans-(3-(Methylphenethylcarbamoyl)propenoyl)hydrazine]
Second: C[C@H](NC(=O)OCc1ccccc1)C(=O)N[C@@H](C)C(=O)NN(CC(N)=O)C(=O)/C=C/C(=O)NCc1ccccc1 [Cbz-Ala-Ala-AAsn-CH═CH—CONHBzl, N^2—(N-Benzyloxycarbonylalanylalanyl)-N^1-carbamoylmethyl-N^1-trans-(3-benzylcarbamoylpropenoyl)hydrazine]
The IC50 of the first is 1.7-fold lower: 600 nM for the first, 1000 nM for the second. The first is the more potent here.

`C[C@H](NC(=O)OCc1ccccc1)C(=O)N[C@@H](C)C(=O)NN(CC(N)=O)C(=O)/C=C/C(=O)NCc1ccc(F)cc1` [Cbz-Ala-Ala-AAsn-CH═CH—CONH-Bzl-4-F, N^2—(N-Benzyloxycarbonylalanylalanyl)-N^1-carbamoylmethyl-N^1-trans-(3-(4-fluorobenzyl)carbamoylpropenoyl)hydrazine] and `C[C@H](NC(=O)OCc1ccccc1)C(=O)N[C@@H](C)C(=O)NN(CC(N)=O)C(=O)/C=C/C(=O)Nc1ccccc1` [Cbz-Ala-Ala-AAsn-CH═CH—CONHPh, N^2—(N-Benzyloxycarbonylalanylalanyl)-N^1-carbamoylmethyl-N^1-trans-(3-phenylcarbamoylpropenoyl)hydrazine] are within 1.5-fold of each other in IC50: 800 nM for the first, 700 nM for the second.

`C[C@H](NC(=O)OCc1ccccc1)C(=O)N[C@@H](C)C(=O)NN(CC(N)=O)C(=O)/C=C/C(=O)N(C)Cc1cccc2ccccc12` [N^2—(N-Benzyloxycarbonylalanylalanyl)-N^1-carbamoylmethyl-N^1-trans-(3-(methyl-1-naphthylmethylcarbamoyl)propenoyl)hydrazine] showed an IC50 of 35 nM.

Same assay, conditions: S. mansoni legumain; 20 min preincubation; Cbz-Ala-Ala-Asn-AMC substrate

`CC=CC=CC(=O)N(CC(N)=O)NC(=O)C(C)NC(=O)C(C)NC(=O)OCc1ccccc1` (stereo not drawn) [Cbz-Ala-Ala-AAsn-CH═CHCH═CHCH3, N^2—(N-Benzyloxycarbonylalanylalanyl)-N^1-carbamoylmethyl-N^1-trans-trans-hexa-2,4-dienoylhydrazine] and `CCN(CC)C(=O)/C=C/C(=O)N(CC(N)=O)NC(=O)[C@H](C)NC(=O)[C@H](C)NC(=O)OCc1ccccc1` [Cbz-Ala-Ala-AAsn-CH═CH—CONEt2, N^2—(N-Benzyloxycarbonylalanylalanyl)-N^1-carbamoylmethyl-N^1-trans-(3-diethylcarbamoylpropenoyl)hydrazine] cannot be ordered by IC50: greater than 2000 nM for the first, greater than 2000 nM for the second.

For `C[C@H](NC(=O)OCc1ccccc1)C(=O)N[C@@H](C)C(=O)NN(CC(N)=O)C(=O)/C=C/C(=O)c1ccccc1` [Cbz-Ala-Ala-AAsn-CH═CH—COPh, trans-N^2—(N-Benzyloxycarbonylalanylalanyl)-N^1-carbamoyImethyl-N^1-trans-(3-benzoylpropenoyl)hydrazine], the IC50 was “does not inhibit”.

Same assay, conditions: S. mansoni legumain; 20 min preincubation; Cbz-Ala-Ala-Asn-AMC substrate; listed as —COPh

For `C[C@H](NC(=O)OCc1ccccc1)C(=O)N[C@@H](C)C(=O)NN(CC(N)=O)C(=O)/C=C/C(=O)c1ccccc1` [Cbz-Ala-Ala-AAsn-CH═CH—COPh, trans-N^2—(N-Benzyloxycarbonylalanylalanyl)-N^1-carbamoyImethyl-N^1-trans-(3-benzoylpropenoyl)hydrazine], the IC50 was greater than 2000 nM.

Same assay, conditions: S. mansoni legumain; 20 min preincubation; Cbz-Ala-Ala-Asn-AMC substrate; read-out: IC50

For `C[C@H](NC(=O)OCc1ccccc1)C(=O)N[C@@H](C)C(=O)NN(CC(N)=O)C(=O)/C=C/C(=O)N1CCCc2ccccc21` (relative stereo) [N^2—(N-Benzyloxycarbonylalanylalanyl)-N^1-carbamoylmethyl-N^1-trans-(3-(3,4-dihydro-2H-quinolin-1-yloxo)propenoyl)hydrazine], the IC50 was 200 nM.

Same assay, conditions: read-out: kobs/[I]

First: C[C@H](NC(=O)OCc1ccccc1)C(=O)N[C@@H](C)C(=O)NN(CC(N)=O)C(=O)/C=C/C(=O)N(Cc1ccccc1)Cc1ccc2ccccc2c1
Second: C[C@H](NC(=O)OCc1ccccc1)C(=O)N[C@@H](C)C(=O)NN(CC(N)=O)C(=O)/C=C/C(=O)N(C)Cc1cccc2ccccc12 [N^2—(N-Benzyloxycarbonylalanylalanyl)-N^1-carbamoylmethyl-N^1-trans-(3-(methyl-1-naphthylmethylcarbamoyl)propenoyl)hydrazine]
The kinact/KI of the first is 2.8-fold lower: 6100 M⁻¹ s⁻¹ for the first, 16900 M⁻¹ s⁻¹ for the second.
